Data taken from patent US20120214862A1, “MODULATION OF FACTOR 7 EXPRESSION” (ISIS Pharmaceuticals, Inc., priority 2009, published 2012).
In the oligonucleotide strings, read from the 5' end, every base follows the letter of its sugar. An asterisk marks phosphorothioate; unmarked linkages are phosphodiester. Other units and linkages are bracketed, terminal groups are in braces. A string of capitals states the bases alone. e = 2'-O-(2-methoxyethyl) (MOE); [5mC] = 5-methylcytosine; d = 2'-deoxy (DNA)

Assays:
human Factor 7 mRNA [1] = assay: Antisense inhibition of human Factor 7 mRNA in HepB3 cells, lipofectin, 50 nM, real-time RT-PCR; assay type: cell-based; conditions: for % Inhibition (human Factor 7 mRNA): 50 nM, ~24 h
In short: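 Cells plated at 4,000 per well were transfected and harvested after approximately 24 hours of treatment. Transcript levels, measured with primer probe set RTS 2927, were normalised to total RNA by RIBOGREEN®. Values are percent inhibition relative to untreated control cells.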

human Factor 7 mRNA [2] = assay: Dose-dependent antisense inhibition of human Factor 7 in HepB3 cells, transfection with lipofectin; assay type: cell-based; conditions: HepB3, lipofectin, ~16 h
Description: Cells were plated at a density of 4,000 cells per well and treated with lipofectin reagent with 3.125 nM, 6.25 nM, 12.5 nM, 25 nM, 50 nM, and 100 nM concentrations of antisense oligonucleotide, as indicated in Table 3. After a treatment period of approximately 16 hours, RNA was isolated from the cells and Factor 7 mRNA levels were measured by real-time RT-PCR, as described herein. Human Factor 7 primer probe set RTS 2927 (forward sequence: […], incorporated herein as SEQ ID NO: 164; reverse sequence: […], incorporated herein as SEQ ID NO: 165; probe sequence: TGGGTGGTCTCCGCGGCCX, incorporated herein as SEQ ID NO: 166) was used to measure mRNA levels. Factor 7 mRNA levels were adjusted according to total RNA content as measured by RIBOGREEN®. Results are presented as percent inhibition of Factor 7, relative to untreated control cells.
Cells were plated at a density of 4,000 cells per well and transfected using lipofectin reagent with 6.25 nM, 12.5 nM, 25.0 nM, 50.0 nM, and 100.0 nM concentrations of antisense oligonucleotide, as indicated in Table 7. After a treatment period of approximately 16 hours, RNA was isolated from the cells and Factor 7 mRNA levels were measured by real-time RT-PCR, as described herein. Human Factor 7 primer probe set RTS 2927 was used to measure mRNA levels. Factor 7 mRNA levels were adjusted according to total RNA content as measured by RIBOGREEN®. Results are presented as percent inhibition of Factor 7, relative to untreated control cells.
Cells were plated at a density of 4,000 cells per well and transfected using lipofectin reagent with 3.125 nM, 6.25 nM, 12.5 nM, 25 nM, 50 nM, and 100 nM concentrations of antisense oligonucleotide, as specified in Table 14. After a treatment period of approximately 16 hours, RNA was isolated from the cells and Factor 7 mRNA levels were measured by quantitative real-time PCR. Human Factor 7 primer probe set RTS 2927 was used to measure mRNA levels. Factor 7 mRNA levels were adjusted according to total RNA content, as measured by RIBOGREEN®. Results are presented as percent inhibition of Factor 7, relative to untreated control cells.

[3] = HepB3 cells, lipofectin, 50 nM antisense oligonucleotide, approximately 24 hours, primer probe set RTS 2927, relative to untreated control
[4] = Example 1, HepB3 cells, lipofectin, relative to untreated control cells

Substance | % Inhibition of human Factor 7 mRNA levels (human Factor 7 mRNA [1]; [3]) [%] | percent inhibition of Factor 7 mRNA, 6.25 nM (human Factor 7 mRNA [2]; Example 5) [%] | percent inhibition of Factor 7 mRNA, 12.5 nM (human Factor 7 mRNA [2]; Example 5) [%] | percent inhibition of Factor 7 mRNA, 25.0 nM (human Factor 7 mRNA [2]; Example 5) [%] | percent inhibition of Factor 7 mRNA, 50.0 nM (human Factor 7 mRNA [2]; Example 5) [%] | percent inhibition of Factor 7 mRNA, 100.0 nM (human Factor 7 mRNA [2]; Example 5) [%] | % Inhibition (human Factor 7 mRNA) (human Factor 7 mRNA [1]; [4]) [%] | % Inhibition of human Factor 7 mRNA levels (human Factor 7 mRNA [1]; HepB3 cells, gapmers targeted to nucleobases 14707 to 14732 of SEQ ID NO: 1 (Table 11)) [%] | percent inhibition of Factor 7 mRNA, 3.125 nM (human Factor 7 mRNA [2]; Example 2) [%] | percent inhibition of Factor 7 mRNA, 6.25 nM (human Factor 7 mRNA [2]; Example 2) [%] | percent inhibition of Factor 7 mRNA, 12.5 nM (human Factor 7 mRNA [2]; Example 2) [%] | percent inhibition of Factor 7 mRNA, 25.0 nM (human Factor 7 mRNA [2]; Example 2) [%] | percent inhibition of Factor 7 mRNA, 50.0 nM (human Factor 7 mRNA [2]; Example 2) [%] | percent inhibition of Factor 7 mRNA, 100.0 nM (human Factor 7 mRNA [2]; Example 2) [%] | % Inhibition (human Factor 7 mRNA) (human Factor 7 mRNA [1]; Example 6 microwalk, nucleobases 15098 to 15122 of SEQ ID NO: 1, HepB3, lipofectin) [%]
416507 (antisense eG*eG*eT*eT*eA*d[5mC]*dT*dG*dA*dG*d[5mC]*dG*d[5mC]*dG*dG*eA*eA*eG*eA*eA) [compound 416507] | 73 | 30 | 53 | 70 | 77 | 72 | – | – | – | – | – | – | – | – | –
407641 (antisense e[5mC]*e[5mC]*eT*eG*eA*dG*dG*d[5mC]*d[5mC]*dA*dG*d[5mC]*dA*dG*dA*eT*e[5mC]*eA*e[5mC]*eG) [compound 407641] | 73 | – | – | – | – | – | 94 | 68 | 53 | 53 | 71 | 84 | 88 | 89 | –
416449 (antisense eT*eA*eG*eG*eT*dA*dT*dT*dT*dT*dT*d[5mC]*d[5mC]*dA*d[5mC]*eA*eT*eG*eG*eA) [compound 416449] | 68 | 19 | 33 | 45 | 65 | 85 | – | – | – | – | – | – | – | – | –
407936 (antisense eG*eG*e[5mC]*eA*eT*dT*d[5mC]*dG*d[5mC]*d[5mC]*dA*d[5mC]*d[5mC]*dA*dT*eG*e[5mC]*eA*eT*eG) [compound 407936] | – | – | – | – | – | – | 91 | – | 45 | 77 | 79 | 86 | 91 | 90 | –
416472 (antisense e[5mC]*eA*eG*e[5mC]*e[5mC]*dT*dT*dG*dG*d[5mC]*dT*dT*dT*d[5mC]*dT*e[5mC]*eT*e[5mC]*e[5mC]*eA) [compound 416472] | 76 | 16 | 44 | 64 | 80 | 88 | – | – | – | – | – | – | – | – | –
407643 (antisense e[5mC]*eA*e[5mC]*eA*e[5mC]*dA*dT*dG*dG*dA*dG*dT*d[5mC]*dA*dG*e[5mC]*eA*eT*e[5mC]*eG) [compound 407643] | 80 | 36 | 49 | 70 | 83 | 93 | 84 | – | 16 | 59 | 68 | 76 | 92 | 95 | 69
